Experimental findings from US20230203043A1, “NOVEL IMIDAZOPYRAZINE DERIVATIVES” (Hoffmann-La Roche Inc., priority 2020, published 2023) are described below.

Counter-ions that a name gives are not always drawn.

One test relates to Acinetobacter baumannii ATCC17961. Description: Antimicrobial susceptibility testing: 90% growth inhibitory concentration (IC90) determination in Iso-Sensitest broth, OD600 growth. Format: cell-based. The following applies: Acinetobacter baumannii, ATCC17961, 16 h, read-out: A. baumannii ATCC 17961 IC90 (uM), strain ATCC 17961, OD600 growth over 16 h. On the procedure:
Antimicrobial Susceptibility Testing:
90% Growth Inhibitory Concentration (IC90) Determination
The in vitro antimicrobial activity of the compounds was determined according to the following procedure:
The assay used a 10-points Iso-Sensitest broth medium to measure quantitatively the in vitro activity of the compounds against Acinetobacter baumannii ATCC17961 or ATCC17968.
Stock compounds in DMSO were serially twofold diluted (e.g. range from 50 to 0.097 μM final concentration) in 384 wells microtiter plates and inoculated with 49 μl the bacterial suspension in Iso-Sensitest medium to have a final cell concentration of ˜5×10^(5) CFU/ml in a final volume/well of 50 ul/well. Microtiter plates were incubated at 35±2° C.
Bacterial cell growth was determined with the measurement of optical density at λ=600 nm each 20 minutes over a time course of 16 h. Growth inhibition was calculated during the logarithmic growth of the bacterial cells with determination of the concentration inhibiting 50% (IC50) and 90% (IC90) of the growth.
Table 7 provides the 90% growth inhibitory concentrations (IC90) in micromoles per liter of the compounds of present invention obtained against the strain Acinetobacter baumannii ATCC17961 and/or ATCC17968.
Consider `CCc1cc(Nc2nccn3c(-c4cn(CC#N)nc4C(F)(F)F)cnc23)ccc1C(=O)NCC(=O)N1CC2CC1CN2` (stereo not drawn) [Example 512, 4-[[3-[1-(cyanomethyl)-3-(trifluoromethyl)pyrazol-4-yl]imidazo[1,2-a]pyrazin-8-yl]amino]-N-[2-(2,5-diazabicyclo[2.2.1]heptan-2-yl)-2-oxo-ethyl]-2-ethyl-benzamide formate], for which the IC90 was 0.341 µM. For the molecule `CCc1cc(Nc2nccn3c(-c4cn(CC#N)nc4C(F)(F)F)cnc23)ccc1C(=O)N1CCNCC1` [Example 260, 2-[4-[8-[3-ethyl-4-(piperazine-1-carbonyl)anilino]imidazo[1,2-a]pyrazin-3-yl]-3-(trifluoromethyl)pyrazol-1-yl]acetonitrile formate], the IC90 was found to be 0.519 µM.

Regarding `CCc1cc(Nc2nccn3c(-c4cn(CC#N)nc4C(F)(F)F)cnc23)ccc1C(=O)NCCNC(=O)CCN` [Example 566, N-(2-(3-aminopropanamido)ethyl)-4-((3-(1-(cyanomethyl)-3-(trifluoromethyl)-1H-pyrazol-4-yl)imidazo[1,2-a]pyrazin-8-yl)amino)-2-ethylbenzamide formate], the IC90 was determined as 0.477 µM. `C[C@H](NC(=O)c1ccc(Nc2nccn3c(-c4c[nH]nc4C(F)(F)F)cnc23)cc1Cl)C(=O)N[C@H]1CCNC1` [Example 127, 2-chloro-N-[(2S)-1-oxo-1-[[(3S)-pyrrolidin-3-yl]amino]propan-2-yl]-4-[[3-[3-(trifluoromethyl)-1H-pyrazol-4-yl]imidazo[1,2-a]pyrazin-8-yl]amino]benzamide formate]: the IC90 was more than 5 µM. On to `CCc1cc(Nc2nccn3c(-c4c[nH]nc4C(F)(F)F)cnc23)ccc1C(=O)NCCNC(=O)[C@@H]1CC[C@@H](N)C1` [Example 586, N-[2-[[(1R,3R)-3-aminocyclo-pentanecarbonyl]amino]ethyl]-2-ethyl-4-[[3-[3-(trifluoromethyl)-1H-pyrazol-4-yl]imidazo[1,2-a]pyrazin-8-yl]amino]benzamide formate], for which the IC90 was determined as 0.434 µM. With `CCc1cc(Nc2nccn3c(-c4cn(CC#N)nc4C(F)(F)F)cnc23)ccc1C(=O)NCCCNC(=O)[C@@H]1CC[C@H](N)C1` [Example 483, N-(3-((1R,3S)-3-(l2-azaneyl)cyclopentane-1-carboxamido)propyl)-4-((3-(1-(cyanomethyl)-3-(trifluoromethyl)-1H-pyrazol-4-yl)imidazo[1,2-a]pyrazin-8-yl)amino)-2-ethylbenzamide formate], the IC90 amounted to 0.194 µM. Regarding `N#CCn1cc(-c2cnc3c(Nc4ccc(C(=O)NCC(=O)N[C@H]5CCNC5)c(Cl)c4)nccn23)c(C(F)(F)F)n1` [Example 731, 2-chloro-4-[[3-[1-(cyanomethyl)-3-(trifluoromethyl)pyrazol-4-yl]imidazo[1,2-a]pyrazin-8-yl]amino]-N-[2-oxo-2-[[(3S)-pyrrolidin-3-yl]amino]ethyl]benzamide formate], the IC90 stood at 0.476 µM.

The same test, now with this note: Acinetobacter baumannii, ATCC17961, 16 h, strain ATCC 17961, OD600 growth over 16 h, read-out: A. baumannii ATCC 17961 IC90.
Take `C#CCn1cc(-c2cnc3c(Nc4ccc(C(=O)N[C@H](C)CN)c(CC)c4)nccn23)c(C(F)(F)F)n1` [Example 106, N-[(2R)-1-aminopropan-2-yl]-2-ethyl-4-[[3-[1-prop-2-ynyl-3-(trifluoromethyl)pyrazol-4-yl]imidazo[1,2-a]pyrazin-8-yl]amino]benzamide]: the IC90 was found to be 0.222 µM. On to `C#CC(C)n1cc(-c2cnc3c(Nc4ccc(C(=O)N5CCN(C(=O)[C@H](N)C(C)C)CC5)c(CC)c4)nccn23)c(C(F)F)n1` (mixture of isomers) [Example 799, (2R)-2-amino-1-(4-(4-((3-(1-(but-3-yn-2-yl)-3-(difluoromethyl)-1H-pyrazol-4-yl)imidazo [1,2-a]pyrazin-8-yl)amino)-2-ethylbenzoyl)piperazin-1-yl)-3-methylbutan-1-one (mixture of epimers)], for which the IC90 amounted to 2.74 µM. For the molecule `N#CCn1cc(-c2cnc3c(Nc4ccc(C(=O)NC56CC(N)(C5)C6)c(Cl)c4)nccn23)c(C(F)(F)F)n1` [Example 88, N-(3-amino-1-bicyclo[1.1.1]pentanyl)-2-chloro-4-[[3-[1-(cyanomethyl)-3-(trifluoromethyl)pyrazol-4-yl]imidazo[1,2-a]pyrazin-8-yl]amino]benzamide], the IC90 was 0.431 µM.

As to `N#CCn1cc(-c2cnc3c(Nc4ccc(C(=O)N5CCN(C(=O)[C@H]6CCCN6)CC5)c(Cl)c4)nccn23)c(C(F)(F)F)n1` [Example 186, 2-[4-[8-[3-chloro-4-[4-[(2R)-pyrrolidine-2-carbonyl]piperazine-1-carbonyl]anilino]imidazo[1,2-a]pyrazin-3-yl]-3-(trifluoromethyl)pyrazol-1-yl]acetonitrile], the IC90 was determined as 0.206 µM.

Take `N#CCn1cc(-c2cnc3c(Nc4ccc(C(=O)N[C@H]5[C@@H]6CN(C(=O)N[C@@H]7CNC[C@H]7O)C[C@@H]65)c(Cl)c4)nccn23)c(C(F)(F)F)n1` [Example 825, (1s,5r)-6-[[2-chloro-4-[[3-[1-(cyanomethyl)-3-(trifluoromethyl)pyrazol-4-yl]imidazo[1,2-α]pyrazin-8-yl]amino]benzoyl]amino]-N-[(3R,4R)-4 hydroxypyrrolidin-3-yl]-3-azabicyclo[3.1.0]hexane-3-carboxamide formic acid salt]: the IC90 was found to be 0.11 µM. Still for that read-out and setting: next, `CCNC(=O)c1ccc(Nc2nccn3c(-c4cn(CC#N)nc4C(F)(F)F)cnc23)cc1CC` [Example 113, 4-[[3-[1-(cyanomethyl)-3-(trifluoromethyl)pyrazol-4-yl]imidazo[1,2-a]pyrazin-8-yl]amino]-N,2-diethylbenzamide]: 0.234 µM; `Cc1cc(Nc2nccn3c(-c4c[nH]nc4C(F)(F)F)cnc23)ccc1C(=O)N1CCN(C(=O)CCCN)CC1` [Example 420, 4-amino-1-[4-[2-methyl-4-[[3-[3-(trifluoromethyl)-1H-pyrazol-4-yl]imidazo[1,2-a]pyrazin-8-yl]amino]benzoyl]piperazin-1-yl]butan-1-one]: 0.746 µM.

With `NCC(=O)N1CC2(C1)CN(C(=O)c1ccc(Nc3nccn4c(-c5cn(CC(F)F)nc5C(F)(F)F)cnc34)cc1Cl)C2` [Example 651, 2-amino-1-(6-(2-chloro-4-((3-(1-(2,2-difluoroethyl)-3-(trifluoromethyl)-1H-pyrazol-4-yl)imidazo[1,2-a]pyrazin-8-yl)amino)benzoyl)-2,6-diazaspiro[3.3]heptan-2-yl)ethan-1-one], the 90% effect concentration (IC90) was 0.254 µM. Same read-out and setting: the value for `Cc1cc(Nc2nccn3c(-c4c[nH]nc4C(F)(F)F)cnc23)ccc1C(=O)N1CCN(C(=O)[C@@H](C)N)CC1` [Example 334, (2R)-2-amino-1-[4-[2-methyl-4-[[3-[3-(trifluoromethyl)-1H-pyrazol-4-yl]imidazo[1,2-a]pyrazin-8-yl]amino]benzoyl]piperazin-1-yl]propan-1-one] was 0.782 µM.

Consider `NC12CC(NC(=O)c3ccc(Nc4nccn5c(-c6c[nH]nc6C(F)(F)F)cnc45)cc3Cl)(C1)C2` [Example 105, N-(3-amino-1-bicyclo[1.1.1]pentanyl)-2-chloro-4-[[3-[3-(trifluoromethyl)-1H-pyrazol-4-yl]imidazo[1,2-a]pyrazin-8-yl]amino]benzamide], for which the IC90 was found to be 1.56 µM.

Still in this test, the particulars now being: strain ATCC 17961, OD600 growth over 16 h, read-out: A. baumannii ATCC 17961 IC90.
Take `C#CCn1cc(-c2cnc3c(Nc4ccc(C(=O)N[C@H](C)CNC(=O)OC(C)(C)C)c(CC)c4)nccn23)c(C(F)(F)F)n1` [Example 128, tert-butyl N-[(2R)-2-[[2-ethyl-4-[[3-[1-prop-2-ynyl-3-(trifluoromethyl)pyrazol-4-yl]imidazo[1,2-a]pyrazin-8-yl]amino]benzoyl]amino]propyl] carbamate]: the IC90 is 0.659 µM.
